Values quoted from earlier work as cited in publication PMC10017685 (Nature Communications, 2023).
Like-named read-outs stand apart in the source and are kept apart here.

Test system: human erythrocytes
Design: method as in DBAASP
Details: cited from earlier work
[1] = toxicity class label 1 or 0, meaning of the labels not given, DBAASP HC50 data, human erythrocytes, ref DBAASP

Row | Sequence | Class (dedicated toxicity dataset used for toxicity classifier evaluation) [1] | Class (dedicated toxicity dataset used for toxicity classifier evaluation)
1 | GLKALKKVFKGIHKAIKLINNHVQ [DBAASP_6929] | 0 | –
2 | GLKALKKVFQGIHEAIKLINNHVQ [DBAASP_6923] | 0 | –
3 | GLKALKKVFQGIHKAIKLINNHVQ [DBAASP_6928] | 0 | –
4 | GLKEVAHSAKKFAKGFISGLTGS [DBAASP_5713] | 0 | –
5 | GLKGLLGKALKGIGKHIGKAQGC [DBAASP_6808] | 0 | –
6 | GLKKIFKAGLGSLKKGIAAHVAS [DBAASP_4412] | 0 | –
7 | GLKKIFKAGLGSLVKGIAAHVAS [DBAASP_4408] | 0 | –
8 | GLKKIFKAGLGSLVKGIAAHVAS [DBAASP_4416] | 1 | –
9 | GLKKIFKAGLGSLVKGIKAHVAS [DBAASP_4414] | 0 | –
10 | GLKKIFKKGLGSLVKGIAAHVAS [DBAASP_4410] | 0 | –
11 | GLKLLLSLGLKLL [DBAASP_13848] | 0 | –
12 | GLLDFFKGAGKELLTHLASQI [DBAASP_16390] | 0 | –
13 | GLLDLLKGAGKGLLTHLASQI [DBAASP_16389] | 0 | –
14 | GLLDLLKLLLKAAG [DBAASP_12756] | 0 | –
15 | GLLDTLKGAAKNVVGSLASKVMEKL [DBAASP_4394] | 0 | –
16 | GLLGKLLKIAAKVGKKLL [DBAASP_4927] | 1 | –
17 | GLLGKLLKIAAKVGSNLL [DBAASP_4922] | 1 | –
18 | GLLGLLGSVVSHVVPAIVGHF [DBAASP_2298] | 1 | –
19 | GLLGPLLKIAAKVGKKLL [DBAASP_4925] | 0 | –
20 | GLLGPLLKIAAKVGKNLL [DBAASP_4924] | 0 | –
21 | GLLGPLLKIAAKVGSKLL [DBAASP_4926] | 0 | –
22 | GLLGPLLKIAAKVGSNLL [DBAASP_3157] | 0 | –
23 | GLLGPLLKIAKKVGSNLL [DBAASP_4923] | 0 | –
24 | GLLKAIKTLL [DBAASP_3121] | 0 | –
25 | GLLKFIKTLL [DBAASP_3138] | 0 | –

Row | Sequence | Class (dedicated toxicity dataset used for toxicity classifier evaluation) [1] | Class (dedicated toxicity dataset used for toxicity classifier evaluation)
26 | GLLKIIKTLL [DBAASP_3137] | 1 | –
27 | GLLKKIKKLL [DBAASP_7429] | 0 | –
28 | GLLKKIKTLL [DBAASP_3141] | 0 | –
29 | GLLKKIKWLL [DBAASP_7430] | – | 0
30 | GLLKKLLKIAAKVGKKLL [DBAASP_4928] | 1 | –
31 | GLLKKLLKKLLKKL [DBAASP_13973] | – | 1
32 | GLLKLIKTLL [DBAASP_3136] | 1 | –
33 | GLLKPLLKIAAKVGSNLL [DBAASP_2279] | 0 | –
34 | GLLKRIATLL [DBAASP_3123] | 0 | –
35 | GLLKRIKALL [DBAASP_3124] | 0 | –
36 | GLLKRIKFLL [DBAASP_3145] | 0 | –
37 | GLLKRIKILL [DBAASP_3144] | 0 | –
38 | GLLKRIKKLL [DBAASP_3148] | 0 | –
39 | GLLKRIKKLLKKIKKLL [DBAASP_8595] | 1 | –
40 | GLLKRIKLLL [DBAASP_3143] | 0 | –
41 | GLLKRIKNLL [DBAASP_3146] | 0 | –
42 | GLLKRIKSLL [DBAASP_8600] | 0 | –
43 | GLLKRIKT [DBAASP_13874] | 0 | –
44 | GLLKRIKTL [DBAASP_13873] | 1 | –
45 | GLLKRIKTLL [DBAASP_3116] | 0 | –
46 | GLLKRIKTLL [DBAASP_7447] | 1 | –
47 | GLLKRIKVLL [DBAASP_3142] | 0 | –
48 | GLLKRIKWLL [DBAASP_3147] | 0 | –
49 | GLLKVIKTLL [DBAASP_3135] | 0 | –
50 | GLLKVIKVLL [DBAASP_3150] | 1 | –

Row | Sequence | Class (dedicated toxicity dataset used for toxicity classifier evaluation) [1] | Class (dedicated toxicity dataset used for toxicity classifier evaluation)
51 | GLLKWIKTLL [DBAASP_3140] | 1 | –
52 | GLLRASSKWGRKYYVDLAGCAKA [DBAASP_12529] | 0 | –
53 | GLLRASSVWGRKYYVDLAGCAKA [DBAASP_1639] | 0 | –
54 | GLLSNVAGLLKQFAKGGVNAVLNPK [DBAASP_5717] | 0 | –
55 | GLLSRIKTLL [DBAASP_8598] | 0 | –
56 | GLLTRIKTLL [DBAASP_8596] | 0 | –
57 | GLMKRIKTML [DBAASP_8625] | 0 | –
58 | GLNAFKKVFQGIHEAIKLINNHVQ [DBAASP_6933] | 0 | –
59 | GLNALKKFFQGIHEAIKLINNHVQ [DBAASP_6934] | 0 | –
60 | GLNALKKVFKGIHEAIKLINNHVQ [DBAASP_6924] | 0 | –
61 | GLNALKKVFQGFHEAIKLINNHVQ [DBAASP_6935] | 0 | –
62 | GLNALKKVFQGIHEAFKLINNHVQ [DBAASP_6936] | 0 | –
63 | GLNALKKVFQGIHEAIKLFNNHVQ [DBAASP_6937] | 0 | –
64 | GLNALKKVFQGIHEAIKLINKHVQ [DBAASP_6926] | 0 | –
65 | GLNALKKVFQGIHEAIKLINNHVK [DBAASP_6927] | 0 | –
66 | GLNALKKVFQGIHEAIKLINNHVQ [DBAASP_3355] | 0 | –
67 | GLNALKKVFQGIHKAIKLINNHVQ [DBAASP_6925] | 0 | –
68 | GLVGTLLGHIGKAILG [DBAASP_5369] | 0 | –
69 | GLVGTLLGHIGKAILS [DBAASP_5370] | 0 | –
70 | GLWSKIKDAAKTAGKAALGFVNEMV [DBAASP_14233] | 0 | –
71 | GLWSKIKKAAKTAGKAALGFVNKMV [DBAASP_14234] | 0 | –
72 | GMATKAGTAFGKAAKAIIGAAL [DBAASP_5720] | 0 | –
73 | GMATKAGTALGKVAKAVIGAAL [DBAASP_2285] | 0 | –
74 | GMLKRIKTLL [DBAASP_8628] | 0 | –
75 | GMLKRIKTLM [DBAASP_8626] | 0 | –

Row | Sequence | Class (dedicated toxicity dataset used for toxicity classifier evaluation) [1] | Class (dedicated toxicity dataset used for toxicity classifier evaluation)
76 | GMMKRIKTMM [DBAASP_8621] | 0 | –
77 | GRFKRFRKKFKKLFKKLS [DBAASP_628] | 0 | –
78 | GRKKRRQRRRGALWKSLLKNVGKA [DBAASP_11807] | – | 0
79 | GVFLDALKKFAKGGMNAVLNPK [DBAASP_3156] | 0 | –
80 | GVGKFLHSAKKFGQALASEIMKS [DBAASP_3769] | 0 | –
81 | GVGKFLHSAKKFGQALVSEIMKS [DBAASP_3770] | 0 | –
82 | GVLKRIKTLV [DBAASP_8624] | 0 | –
83 | GVSKILHSAGKFGKAFLGEIMKS [DBAASP_3776] | 0 | –
84 | GVVDILKGAAKDIAGHLASKVMNKL [DBAASP_4358] | 0 | –
85 | GVVDILKGAAKDLAGHLATKVMNKL [DBAASP_4357] | 0 | –
86 | GVVKRIKTVV [DBAASP_8620] | 0 | –
87 | GVWSTILGGLKKFAKGGLDAIVNPK [DBAASP_5716] | 0 | –
88 | GVWSTVLGGLKKFAKGGLEAIVNPK [DBAASP_3155] | 0 | –
89 | GWASSIGSILGKFAKGGAQAFLQPK [DBAASP_5714] | 0 | –
90 | GWGSFFKKAAHVGKHVGKAALTHYL [DBAASP_1004] | 0 | –
91 | GWGSIFKHGRHAAKHIGHAAVNHYL [DBAASP_1420] | 0 | –
92 | GWKDLLKGAAKALVKTVF [DBAASP_11233] | 0 | –
93 | GWKKWFNRAKKVGKTVGGLAVDHYL [DBAASP_996] | 0 | –
94 | GWKKWFTKGERLSQRHFA [DBAASP_1000] | 0 | –
95 | GWKKWLRKGAKHLGQAAIK [DBAASP_1434] | 0 | –
96 | GWKKWLRKGAKHLGQAAIKGLAS [DBAASP_1435] | 0 | –
97 | GWKSVFRKAKKVGKTVGGLALDHYL [DBAASP_995] | 0 | –
98 | GWLDVAKKIGKAAFNVAKNFI [DBAASP_7670] | 1 | –
99 | GWLDVAKKIGKAAFNVAKNFL [DBAASP_10137] | 0 | –
